Measured values published in patent US12643885B2, “KRAS G12D protein inhibitors” (TAIHO PHARMACEUTICAL CO., LTD., priority 2020, dated 2026).

Molecular target: T1, KRAS G12D (Homo sapiens, UniProt P01116, G12D)
T1 construct: made in house; host or cells: Escherichia coli BL21 (DE3), pET28a
Assay: Inhibitory activity on KRAS G12D nucleotide (GDP-GTP) exchange reaction in vitro (SOS1-dependent, BODIPY FL GDP)
Format: biochemical
Conditions: BODIPY FL GDP-bound recombinant KRAS G12D, 25° C. 1 hour preincubation, then SOS1 and GMPPNP 30 minutes at room temperature
Source text: Test Example: Evaluation of Inhibitory Activity of Compounds of Examples 1-21 on KRAS G12D Nucleotide (GDP-GTP) Exchange Reaction In Vitro
Recombinant KRAS G12D (conjugated N-terminus His6-tag, TEV protease cleavage site and KRAS G12D residues 1-169 (SEQ ID NO: 1), prepared by the method described below) and cleaved recombinant SOS1 (residues 564-1049 (SEQ ID NO: 2), prepared by the method described below) proteins were expressed in E. coli and purified by affinity chromatography.
To prepare BODIPY FL (fluorescent dye) GDP-bound KRAS G12D protein, 50 μM KRAS G12D protein was incubated with 0.5 mM BODIPY FL GDP in a loading buffer (20 mM Tris-HCl (pH 7.5), 50 mM NaCl, 1 mM DTT and 2.5 mM EDTA) for 1 hour on ice. After the incubation, MgCl2 was added to a final concentration of 10 mM, followed by incubation at room temperature for 30 minutes.
The mixture was allowed to pass through a NAP-5 column to remove free nucleotides, and purified BODIPY FL GDP-bound KRAS G12D protein was used for compound evaluation.
For the measurement of the inhibitory activity of compounds on GDP-GTP exchange rate of recombinant KRAS G12D, BODIPY FL GDP-bound KRAS G12D protein was incubated with various concentrations of compounds of Formula (I), i.e., compounds of Examples 1-21, in a reaction buffer (20 mM Tris-HCl (pH 7.5), 100 mM NaCl, 1 mM MgCl2, 2 mM DTT, 0.1% Tween 20) at 25° C. for 1 hour.
After the incubation, recombinant SOS1 and GMPPNP (guanosine-5′-[(β,γ)-imido]triphosphate, tetralithium salt) (Jena Bioscience GmbH, Jena, Germany) were added and incubated at room temperature for 30 minutes to proceed SOS1-dependent GDP-GTP exchange reaction on KRAS G12D. Replacement of BODIPY FL GDP by GMPPNP was measured by calculating the ratio of fluorescence intensities of BODIPY FL before and after the exchange reaction.
Inhibition % was calculated by setting the fluorescence ratio from the reaction without test compound (DMSO control) and the fluorescence ratio from the reaction without SOS1 and GMPPNP as 0% and 100% inhibition, respectively. IC50 values were calculated from a dose titration curve using curve fitting by XLfit software (IDBS, Boston, Massachusetts, US).

T1 sequence (P01116 with tags, fused parts or gaps isoform P01116-2 G12D): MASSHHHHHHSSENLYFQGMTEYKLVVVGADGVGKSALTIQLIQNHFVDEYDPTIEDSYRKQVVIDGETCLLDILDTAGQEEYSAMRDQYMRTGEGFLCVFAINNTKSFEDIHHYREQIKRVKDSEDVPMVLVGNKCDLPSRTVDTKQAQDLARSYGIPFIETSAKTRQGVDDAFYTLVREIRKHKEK

Compound	IC50 [µM]
C[C@@H]1NC[C@H]1N(C)C(=O)c1c(Cl)nc(CNc2n[nH]c3cc(Cl)c(C(C)(C)C)cc23)n1C (relative stereo) [Example 11]	43.7
C[C@H]1CNC[C@@H]1N(C)C(=O)c1c(Cl)nc(CNc2n[nH]c3cc(Cl)c(C(C)(C)C)cc23)n1C (relative stereo) [Example 13, 2-(((5-(tert-butyl)-6-chloro-1H-indazol-3-yl)amino)methyl)-4-chloro-N,1-dimethyl-N-(trans-4-methylpyrrolidin-3-yl)-1H-imidazole-5-carboxamide]	17.1
C[C@@H]1CNC[C@@H]1N(C)C(=O)c1c(Cl)nc(CNc2n[nH]c3cc(Cl)c(C(C)(C)C)cc23)n1C (relative stereo) [Example 14, 2-(((5-(tert-butyl)-6-chloro-1H-indazol-3-yl)amino)methyl)-4-chloro-N,1-dimethyl-N-(cis-4-methylpyrrolidin-3-yl)-1H-imidazole-5-carboxamide]	43.1
CN(C(=O)c1c(Cl)nc(CNc2n[nH]c3cc(Cl)c(C(C)(C)C)cc23)n1C)C1CNC1 [Example 1, N-(azetidin-3-yl)-2-(((5-(tert-butyl)-6-chloro-1H-indazol-3-yl)amino)methyl)-4-chloro-N,1-dimethyl-1H-imidazole-5-carboxamide]	20.7
CN(C(=O)c1c(Cl)nc(CNc2n[nH]c3cc(Cl)c(C(C)(C)C)cc23)n1C)[C@H]1CCNC1 [Example 2, (S)-2-(((5-(tert-butyl)-6-chloro-1H-indazol-3-yl)amino)methyl)-4-chloro-N,1-dimethyl-N-(pyrrolidin-3-yl)-1H-imidazole-5-carboxamide]	12.4
CN(C(=O)c1c(Cl)nc(CNc2n[nH]c3cc(Cl)c(C(C)(C)C)cc23)n1C)[C@@H]1CCNC1 [Example 3, (R)-2-(((5-(tert-butyl)-6-chloro-1H-indazol-3-yl)amino)methyl)-4-chloro-N,1-dimethyl-N-(pyrrolidin-3-yl)-1H-imidazole-5-carboxamide]	18.7
Cn1c(CNc2n[nH]c3cc(Cl)c(C(C)(C)C)cc23)nc(Cl)c1C(=O)N1CCCNCC1 [Example 4, (2-(((5-(tert-butyl)-6-chloro-1H-indazol-3-yl)amino)methyl)-4-chloro-1-methyl-1H-imidazol-5-yl)(1,4-diazepan-1-yl)methanone]	38
CC(C)N1CC[C@@H](n2c(CNc3n[nH]c4cc(Cl)c(C(C)(C)C)cc34)nc(Cl)c2C(=O)N(C)[C@@H]2CCNC2)C1 [Example 5, 2-(((5-(tert-butyl)-6-chloro-1H-indazol-3-yl)amino)methyl)-4-chloro-1-((R)-1-isopropylpyrrolidin-3-yl)-N-methyl-N-((R)-pyrrolidin-3-yl)-1H-imidazole-5-carboxamide]	1.3
CC(C)N1CC[C@@H](n2c(CNc3n[nH]c4cc(Cl)c(C(C)(C)C)cc34)nc(Cl)c2C(=O)N(C)C2CNC2)C1 [Example 6, (R)-N-(azetidin-3-yl)-2-(((5-(tert-butyl)-6-chloro-1H-indazol-3-yl)amino)methyl)-4-chloro-1-(1-isopropylpyrrolidin-3-yl)-N-methyl-1H-imidazole-5-carboxamide]	3.8
CN(CCN)C(=O)c1c(Cl)nc(CNc2n[nH]c3cc(Cl)c(C(C)(C)C)cc23)n1C [Example 7, N-(2-aminoethyl)-2-(((5-(tert-butyl)-6-chloro-1H-indazol-3-yl)amino)methyl)-4-chloro-N,1-dimethyl-1H-imidazole-5-carboxamide]	43.5
CC(C)N1CC[C@@H](n2c(CNc3n[nH]c4cc(Cl)c(C(C)(C)C)cc34)nc(Cl)c2C(=O)N(C)CCN)C1 [Example 8, (R)-N-(2-aminoethyl)-2-(((5-(tert-butyl)-6-chloro-1H-indazol-3-yl)amino)methyl)-4-chloro-1-(1-isopropylpyrrolidin-3-yl)-N-methyl-1H-imidazole-5-carboxamide]	35.3
CC[C@@H]1CNC[C@@H]1N(C)C(=O)c1c(Cl)nc(CNc2n[nH]c3cc(Cl)c(C(C)(C)C)cc23)n1C [Example 9, 2-(((5-(tert-butyl)-6-chloro-1H-indazol-3-yl)amino)methyl)-4-chloro-N-((3R,4R)-4-ethylpyrrolidin-3-yl)-N,1-dimethyl-1H-imidazole-5-carboxamide]	33.5
CN(C(=O)c1c(Cl)nc(CNc2n[nH]c3cc(Cl)c(C(C)(C)C)cc23)n1C)[C@@H]1CNCC12CC2 [Example 10, (S)-2-(((5-(tert-butyl)-6-chloro-1H-indazol-3-yl)amino)methyl)-4-chloro-N,1-dimethyl-N-(5-azaspiro[2.4]heptan-7-yl)-1H-imidazole-5-carboxamide]	46.9
CN[C@H]1C[C@@H]1N(C)C(=O)c1c(Cl)nc(CNc2n[nH]c3cc(Cl)c(C(C)(C)C)cc23)n1C [Example 12, 2-(((5-(tert-butyl)-6-chloro-1H-indazol-3-yl)amino)methyl)-4-chloro-N,1-dimethyl-N-((1S,2S)-2-(methylamino)cyclopropyl)-1H-imidazole-5-carboxamide]	38.2
CN(C(=O)c1c(Cl)nc(CNc2cc(C(C)(C)C)c(Cl)cc2O)n1C)[C@@H]1CCNC1 [Example 15, (R)-2-(((5-(tert-butyl)-4-chloro-2-hydroxyphenyl)amino)methyl)-4-chloro-N,1-dimethyl-N-(pyrrolidin-3-yl)-1H-imidazole-5-carboxamide]	32.9
CN(C(=O)c1c(Cl)nc(CNc2cc(C(C)(C)C)c(Cl)cc2O)n1C)[C@H]1CCNC1 [Example 16, (S)-2-(((5-(tert-butyl)-4-chloro-2-hydroxyphenyl)amino)methyl)-4-chloro-N,1-dimethyl-N-(pyrrolidin-3-yl)-1H-imidazole-5-carboxamide]	26.2
CN(C(=O)c1c(Cl)nc(CNc2cc(C(C)(C)C)c(Cl)cc2O)n1C)C1CNC1 [Example 17, N-(azetidin-3-yl)-2-(((5-(tert-butyl)-4-chloro-2-hydroxyphenyl)amino)methyl)-4-chloro-N,1-dimethyl-1H-imidazole-5-carboxamide]	12
CC(C)N1CC[C@@H](n2c(CNc3cc(C(C)(C)C)c(Cl)cc3O)nc(Cl)c2C(=O)N(C)[C@@H]2CCNC2)C1 [Example 18, 2-(((5-(tert-butyl)-4-chloro-2-hydroxyphenyl)amino)methyl)-4-chloro-1-((R)-1-isopropylpyrrolidin-3-yl)-N-methyl-N-((R)-pyrrolidin-3-yl)-1H-imidazole-5-carboxamide]	1.6
CC(C)N1CC[C@@H](n2c(CNc3cc(C(C)(C)C)c(Cl)cc3O)nc(Cl)c2C(=O)N(C)[C@H]2CCNC2)C1 [Example 19, 2-(((5-(tert-butyl)-4-chloro-2-hydroxyphenyl)amino)methyl)-4-chloro-1-((R)-1-isopropylpyrrolidin-3-yl)-N-methyl-N-((S)-pyrrolidin-3-yl)-1H-imidazole-5-carboxamide]	3.7
CC(C)N1CC[C@@H](n2c(CNc3cc(C(C)(C)C)c(Cl)cc3O)nc(Cl)c2C(=O)N(C)C2CNC2)C1 [Example 20, (R)-N-(azetidin-3-yl)-2-(((5-(tert-butyl)-4-chloro-2-hydroxyphenyl)amino)methyl)-4-chloro-1-(1-isopropylpyrrolidin-3-yl)-N-methyl-1H-imidazole-5-carboxamide]	3.2
CN(C(=O)c1c(Cl)nc(CNc2n[nH]c3cc(Cl)c(C(C)(C)C)cc23)n1C)C1CCNC1 (stereo not drawn) [Example 21, 2-(((5-(tert-butyl)-6-chloro-1H-indazol-3-yl)amino)methyl)-4-chloro-N,1-dimethyl-N-(pyrrolidin-3-yl)-1H-imidazole-5-carboxamide]	31.5
